Laboratory results: patent US11578079B2, “SUMO inhibitor compounds and uses thereof” (CITY OF HOPE, priority 2018, dated 2023)

Experiments:
c-Myc = c-Myc activity (Table I, biological activities); design: key: + (less active); ++ (active); +++ (most active)
SUMO = molecular target: T1, SUMO (Homo sapiens, UniProt Q9UBT2); assay: SUMO activity (Table I, biological activities); type: biochemical; design: key: + (less active); ++ (active); +++ (most active)
T1 sequence (Q9UBT2 1-640): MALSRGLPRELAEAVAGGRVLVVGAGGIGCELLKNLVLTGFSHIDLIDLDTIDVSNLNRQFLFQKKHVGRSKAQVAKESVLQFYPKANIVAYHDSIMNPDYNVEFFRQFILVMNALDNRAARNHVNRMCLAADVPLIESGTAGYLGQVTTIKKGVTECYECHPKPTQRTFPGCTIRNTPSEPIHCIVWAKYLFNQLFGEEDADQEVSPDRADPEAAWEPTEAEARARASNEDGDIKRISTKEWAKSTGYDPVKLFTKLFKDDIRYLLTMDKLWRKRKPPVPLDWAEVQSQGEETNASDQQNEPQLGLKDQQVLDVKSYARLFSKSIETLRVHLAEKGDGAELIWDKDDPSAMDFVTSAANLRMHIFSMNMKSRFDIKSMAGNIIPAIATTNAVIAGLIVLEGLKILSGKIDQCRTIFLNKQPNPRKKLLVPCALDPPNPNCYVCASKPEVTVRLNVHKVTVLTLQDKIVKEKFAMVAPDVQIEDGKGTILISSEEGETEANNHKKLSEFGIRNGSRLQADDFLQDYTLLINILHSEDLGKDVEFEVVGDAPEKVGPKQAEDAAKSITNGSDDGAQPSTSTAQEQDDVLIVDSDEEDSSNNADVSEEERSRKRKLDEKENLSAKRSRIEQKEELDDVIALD
T1 sequence (Q9UBE0 1-346 partner): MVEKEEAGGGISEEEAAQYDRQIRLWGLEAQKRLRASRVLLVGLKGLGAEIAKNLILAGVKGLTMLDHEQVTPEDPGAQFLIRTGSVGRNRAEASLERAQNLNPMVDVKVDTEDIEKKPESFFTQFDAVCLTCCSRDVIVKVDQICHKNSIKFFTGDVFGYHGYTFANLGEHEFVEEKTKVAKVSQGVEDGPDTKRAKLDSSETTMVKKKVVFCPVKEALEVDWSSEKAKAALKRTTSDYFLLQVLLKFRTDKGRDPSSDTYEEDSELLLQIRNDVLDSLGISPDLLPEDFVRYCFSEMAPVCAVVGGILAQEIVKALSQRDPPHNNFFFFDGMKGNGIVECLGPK

Row | Compound | c-Myc (c-Myc) | SUMO (SUMO)
1 | COC(=O)C1=C(C(=O)Nc2ccc(OCCN(C)C)cc2)C2C=CC1(C(Cc1ccccc1)Nc1ccccc1)O2 (centres unmarked) [Compound 491] | + | +++
2 | COC(=O)C1=C(C(=O)NC2CN(C)C2)C2C=CC1(C(Cc1ccccc1)Nc1ccccc1)O2 (centres unmarked) [Compound 492] | + | +++
3 | COC(=O)C1=C(C(=O)Nc2ccc(N3CCN(C)CC3)c(F)c2)C2C=CC1(C(Cc1ccccc1)Nc1ccccc1)O2 (centres unmarked) [Compound 494] | + | +
4 | COC(=O)C1=C(C(=O)Nc2ccc(C)c(F)c2)C2C=CC1(C(Oc1ccccc1)c1ccc(CN3CCOCC3)cc1)O2 (centres unmarked) [Compound 496] | + | +
5 | COC(=O)C1=C(C(=O)Nc2ccc(OCCN(C)C)c(F)c2)C2C=CC1(C(Cc1ccccc1)Nc1ccccc1)O2 (centres unmarked) [Compound 500] | + | ++
6 | COC(=O)C1=C(C(=O)Nc2ccc(OCCN3CCN(C)CC3)cc2)C2C=CC1(C(Cc1ccccc1)Nc1ccccc1)O2 (centres unmarked) [Compound 501] | + | +++
7 | COC(=O)C1=C(C(=O)Nc2ccc(OCCN3CCOCC3)cc2)C2C=CC1(C(Cc1ccccc1)Nc1ccccc1)O2 (centres unmarked) [Compound 502] | + | +++
8 | COC(=O)C1=C(C(=O)Nc2ccc(CN3CCN(C)CC3)cc2)C2C=CC1(C(Cc1ccccc1)Nc1ccccc1)O2 (centres unmarked) [Compound 504] | + | ++
9 | COC(=O)C1=C(C(=O)Nc2ccc(OCCN3CCCC3)cc2)C2C=CC1(C(Cc1ccccc1)Nc1ccccc1)O2 (centres unmarked) [Compound 505] | + | ++
10 | COC(=O)C1=C(C(=O)Nc2ccc(CN(C)C)cc2)C2C=CC1(C(Cc1ccccc1)Nc1ccccc1)O2 (centres unmarked) [Compound 506] | + | ++
11 | COC(=O)C1=C(C(=O)Nc2ccc(CN3CCOCC3)cc2)C2C=CC1(C(Cc1ccccc1)Nc1ccccc1)O2 (centres unmarked) [Compound 507] | + | ++
12 | COC(=O)C1=C(C(=O)Nc2ccc(CN3CCCC3)cc2)C2C=CC1(C(Cc1ccccc1)Nc1ccccc1)O2 (centres unmarked) [Compound 508] | + | ++
13 | CCOC(=O)C1=C(C(F)(F)F)C2(C(Cc3ccccc3)Oc3ccccc3)C=CC1O2 (centres unmarked) [Compound 513] | ++ | ++
14 | COC(=O)C1=C(C(=O)OC)C2(C(Cc3ccccc3)Oc3ccccc3)OC1C1OC12 (centres unmarked) [Compound 515] | + | ++
15 | Cc1ccc(S(=O)(=O)C2=CC3(C4OCCO4)C=CC2O3)cc1 (centres unmarked) [Compound 516] | + | ++
16 | CCOC(=O)C1=C(C(F)(F)F)C2C=CC1(C1OCCO1)O2 (centres unmarked) [Compound 519] | + | ++
17 | COC(=O)C1=C(C(=O)Nc2ccc(OC)cc2)C2OC1(C(Cc1ccccc1)Oc1ccccc1)C1OC21 (centres unmarked) [Compound 522] | + | +
18 | O=C(C1=CC2(C3OCCO3)C=CC1O2)c1ccc(F)cc1 (centres unmarked) [Compound 523] | + | ++
19 | O=C(C1=CC2(C(Cc3ccccc3)Nc3ccccc3)C=CC1O2)c1ccc(F)cc1 (centres unmarked) [Compound 525] | + | +
20 | CC12C=CC(C(Cc3ccccc3)Nc3ccccc3)(C=C1C(=O)c1ccc(F)cc1)O2 (centres unmarked) [Compound 526] | + | +
21 | CC(=O)C1=CC2(C(Cc3ccccc3)Nc3ccccc3)C=CC1(C)O2 (centres unmarked) [Compound 527] | + | +
22 | COC(=O)C1=C(C(=O)Nc2ccccc2)C2C=CC1(C(Cc1ccccc1)Nc1cccc(CO)c1)O2 (centres unmarked) [Compound 528] | ++ | ++
23 | COC(=O)C1=C(C(=O)NCc2ccccn2)C2OC1(C(Cc1ccccc1)Oc1ccccc1)C1OC21 (centres unmarked) [Compound 547] | ++ | ++
24 | CCOC(=O)C1=C(C(=O)Nc2cccnc2)C2C=CC1(C(Nc1ccccc1)c1ccc(CN3CCOCC3)cc1)O2 (centres unmarked) [Compound 550] | + | +++
25 | CCOC(=O)C1=C(C(N)=O)C2C=CC1(C(Nc1ccccc1)c1ccc(CN3CCOCC3)cc1)O2 (centres unmarked) [Compound 552] | + | ++

Row | Compound | c-Myc (c-Myc) | SUMO (SUMO)
26 | COC(=O)C1=C(C(=O)OC)C2(C(Cc3ccccc3)N(C(=O)C(F)(F)F)c3ccccc3)C=CC1O2 (centres unmarked) [Compound 554] | ++ | ++
27 | COC(=O)C1=C(C(=O)OC)C2(C(Cc3ccccc3)N(C(=O)C(F)(F)F)c3ccccc3)OC1C1=C2O1 (centres unmarked) [Compound 555] | + | +
28 | CCOC(=O)C1=C(C(=O)Nc2ccc(C)c(F)c2)C2C=CC1(C(Nc1ccccc1)c1ccc(CN3CCOCC3)cc1)O2 (centres unmarked) [Compound 558] | + | +
29 | CCOC(=O)C1=C(C(=O)NCCN2CCCC2)C2C=CC1(C(Cc1ccccc1)Nc1ccccc1)O2 (centres unmarked) [Compound 564] | + | ++
30 | CCOC(=O)C1=C(C(=O)Nc2ccc(CN(C)C)cc2)C2C=CC1(C(Nc1ccccc1)c1ccc(CN3CCOCC3)cc1)O2 (centres unmarked) [Compound 565] | + | +
31 | CCOC(=O)C1=C(C(=O)Nc2ccc(OC)cc2)C2C=CC1(C(Nc1ccccc1)c1ccc(CN3CCOCC3)cc1)O2 (centres unmarked) [Compound 567] | + | ++
32 | CCOC(=O)C1=C(C(=O)Nc2ccc(Oc3ccccc3)cc2)C2C=CC1(C(Nc1ccccc1)c1ccc(CN3CCOCC3)cc1)O2 (centres unmarked) [Compound 569] | + | +
33 | CCOC(=O)C1=C(C(=O)NCCN(C)C)C2C=CC1(C(Nc1ccccc1)c1ccc(CN3CCOCC3)cc1)O2 (centres unmarked) [Compound 571] | + | ++
34 | CCOC(=O)C1=C(C(=O)Nc2ccc(C)nc2)C2C=CC1(C(Nc1ccccc1)c1ccc(CN3CCOCC3)cc1)O2 (centres unmarked) [Compound 573] | + | +
35 | C#Cc1ccc(NC(=O)C2=C(C(=O)OCC)C3(C(Nc4ccccc4)c4ccc(CN5CCOCC5)cc4)C=CC2O3)cc1 (centres unmarked) [Compound 577] | ++ | ++
36 | CCOC(=O)C1=C(C(=O)Nc2ccc(C)c(F)c2)C2(C)C=CC1(C(Nc1ccccc1)c1ccc(CN3CCOCC3)cc1)O2 (centres unmarked) [Compound 579] | + | +
37 | CCOC(=O)C1=C(C(=O)Nc2ccc(OC)cc2)C2(C)C=CC1(C(Nc1ccccc1)c1ccc(CN3CCOCC3)cc1)O2 (centres unmarked) [Compound 581] | + | +
38 | COC(=O)C1=C(C(=O)OC)C2(C(Cc3ccccc3)Nc3ccccc3)C=CC1(C)O2 (centres unmarked) [Compound 586] | + | ++
39 | CCOC(=O)C1=C(C(=O)N(C)C)C2C=CC1(C(Nc1ccccc1)c1ccc(CN3CCOCC3)cc1)O2 (centres unmarked) [Compound 590] | + | +
40 | CCOC(=O)C1=C(C(=O)Nc2ccccc2C)C2C=CC1(C(Nc1ccccc1)c1ccc(CN3CCOCC3)cc1)O2 (centres unmarked) [Compound 591] | ++ | ++
41 | CCOC(=O)C1=C(C(=O)N(C)C)C2C=CC1(C(Cc1ccccc1)Nc1ccccc1)O2 (centres unmarked) [Compound 593] | + | +
42 | COC(=O)C1=C(C(=O)NCCN(C)C)C2(C)C=CC1(C(Cc1ccccc1)Nc1ccccc1)O2 (centres unmarked) [Compound 594] | + | ++
43 | CCOC(=O)C1=C(C(=O)Nc2ccccc2F)C2C=CC1(C(Nc1ccccc1)c1ccc(CN3CCOCC3)cc1)O2 (centres unmarked) [Compound 595] | + | ++
44 | CCOC(=O)C1=C(C(=O)Nc2ccccc2OC)C2C=CC1(C(Nc1ccccc1)c1ccc(CN3CCOCC3)cc1)O2 (centres unmarked) [Compound 597] | ++ | +
45 | CCOC(=O)C1=C(C(=O)Nc2ccc(OC(F)(F)F)cc2)C2C=CC1(C(Nc1ccccc1)c1ccc(CN3CCOCC3)cc1)O2 (centres unmarked) [Compound 599] | ++ | ++
46 | CCOC(=O)C1=C(C(=O)Nc2ccc(F)cc2)C2C=CC1(C(Nc1ccccc1)c1ccc(CN3CCOCC3)cc1)O2 (centres unmarked) [Compound 601] | + | ++
47 | CCOC(=O)C1=C(C(=O)Nc2ccccc2)C2C=CC1(C(Nc1ccccc1)c1ccc(CN3CCOCC3)cc1)O2 (centres unmarked) [Compound 604] | + | ++
48 | CCOC(=O)C1=C(C(=O)Nc2ccc(Cl)cc2)C2C=CC1(C(Nc1ccccc1)c1ccc(CN3CCOCC3)cc1)O2 (centres unmarked) [Compound 606] | + | ++
49 | CCOC(=O)C1=C(C(=O)Nc2ccccc2Oc2ccccc2)C2C=CC1(C(Nc1ccccc1)c1ccc(CN3CCOCC3)cc1)O2 (centres unmarked) [Compound 608] | + | +
